According to US5095139A (Ciba-Geigy Corporation, priority 1986, dated 1992):

Experiments:
fungi = experiment: antifungal activity of isolated tripeptides; format: cell-based; conditions: isolated by HPLC from rhizocticine B isolates
pronase = pronase from Streptomyces griseus; conditions: up to 12 hours
solubility = format: physicochemical
thermolysin = thermolysin (2 mg/ml) in 0.05N N-ethylmorpholinium acetate, 0.01 M CaCl2 ×6H2 O (pH 7.8); conditions: 41° C., up to 30 hours
Candida albicans = conditions: cited from earlier work
Saccharomyces cerevisiae = conditions: cited from earlier work
hyphal fungi = conditions: cited from earlier work
[1] = test system: pronase from Streptomyces griseus; experiment: pronase treatment
Method: The enzymatic hydrolysis of rhizocticine B (L-Val-L-Arg-L-APPA) to rhizocticine A with removal of valine is effected with pronase from Streptomyces griseus, a peptidase of low specificity. The enzymatic degradation of L-Val-L-Arg-L-APPA is effected quantitatively within a few minutes (approximately 15 minutes), the antifungal activity being obtained. By removing the N-terminal amino acid valine, rhizocticine A is formed. The hydrolysis is confirmed by thin-layer chromatography and ion-exchanger/amino acid analysis.

Molecule | Solubility (solubility; 35% ethanol) | Solubility (solubility; apolar solvents) | Solubility (solubility; ethanol and higher alcohols) | Solubility (solubility; water) | further results
CC(C)C[C@H](N)C(=O)N[C@@H](CCCNC(=N)N)C(=O)N[C@@H](/C=C\CP(=O)(O)O)C(=O)O [rhizocticine D, L-Leu-L-Arg-L-APPA] |  |  |  |  | antifungal activity (fungi): antifungal
L-Val-L-Arg-L-APPA |  |  |  |  | cleaved bond (pronase): L-Val-L-Arg, approximately 15 minutes
N[C@@H](/C=C\CP(=O)(O)O)C(=O)O (stereo in doubt) [L-APPA, L-2-amino-5-phosphono-3-cis-pentenoic acid] | readily soluble | insoluble | moderately soluble | readily soluble | 
L-Arg-L-APPA |  |  |  |  | cleaved bond (thermolysin): L-Arg-L-APPA; not cleaved (pronase): remains inert during the pronase treatment
C[C@H](N)C(=O)N[C@@H](C[C@@H]1CCC(=O)[C@@H]2O[C@H]12)C(=O)O [Bacilysin, N-alanyl-3-(2,3-epoxycyclohexanon-4-yl)-alanine] |  |  |  |  | inhibition (Candida albicans): inhibits; inhibition (Saccharomyces cerevisiae): inhibits; action (hyphal fungi): virtually no action
N=C(N)NCCC[C@H](N)C(=O)N[C@@H](/C=C\CP(=O)(O)O)C(=O)O [rhizocticine A, L-Arg-L-APPA] | readily soluble | insoluble | moderately soluble | readily soluble | loss of activity of the dipeptide formed ([1]; after 12 hours of pronase treatment): no loss of activity; behaviour during the pronase treatment ([1]; native compound): remains inert
CC[C@H](C)[C@H](N)C(=O)N[C@@H](CCCNC(=N)N)C(=O)N[C@@H](/C=C\CP(=O)(O)O)C(=O)O [rhizocticine C, L-Ile-L-Arg-L-APPA] |  |  |  |  | antifungal activity (fungi): antifungal
CC(C)[C@H](N)C(=O)N[C@@H](CCCNC(=N)N)C(=O)N[C@@H](/C=C\CP(=O)(O)O)C(=O)O [rhizocticine B, L-Val-L-Arg-L-APPA] | readily soluble | insoluble | moderately soluble | readily soluble | time for quantitative enzymatic degradation (removal of N-terminal valine) ([1]; pronase): approximately 15 minutes
